Reference: patent US9102638B2, “Amidobenzothiazoles and process for the preparation thereof” (COUNCIL OF SCIENTIFIC & INDUSTRIAL RESEARCH, priority 2011, dated 2015)

Legend:
Format in all cases: cell-based
CCRF-CEM = experiment: In vitro cytotoxicity, NCI sixty cell line screen: CCRF-CEM (Leukemia); settings: Homo sapiens, Leukemia panel, NCI protocol, read-out: GI50 values (μM conc.)
Description: (§1) The in vitro anticancer activity studies for these amidobenzothiazoles were carried out at the National Cancer Institute, Maryland, USA.
(§2) The amidobenzothiazoles have been tested against sixty human tumor cell lines derived from nine cancer types (leukemia cancer cell line, non-small cell lung cancer cell line, colon cancer cell line, CNS cancer cell line, melanoma cancer cell line, ovarian cancer cell line, renal cancer cell line, prostate cancer cell line and breast cancer cell lines). For these compounds results are expressed in GI50 values of that particular cancer cell at micro molar (μM) concentration as per NCI protocol.

HCT-15 = experiment: In vitro cytotoxicity, NCI screen: HCT-15 (Colon); settings: Homo sapiens; HCT-15, Colon panel, NCI protocol; read-out: GI50 values (μM conc.)
Description: as §1, §2

SR = experiment: In vitro cytotoxicity, NCI screen: SR (Leukemia); settings: Homo sapiens, Leukemia panel, NCI protocol, read-out: GI50 values (μM conc.)
Description: as §1, §2

MDA-MB-468 = experiment: In vitro cytotoxicity, NCI screen: MDA-MB-468 (Breast); settings: Homo sapiens, read-out: GI50 values (μM conc.)
Description: as §1, §2

A498 = experiment: In vitro cytotoxicity, NCI screen: A498 (Renal); settings: Homo sapiens; A498, Renal panel, NCI protocol; read-out: GI50 values (μM conc.)
Description: as §1, §2

KM12 = experiment: In vitro cytotoxicity, NCI screen: KM12 (Colon); settings: Homo sapiens; KM12, Colon panel, NCI protocol; read-out: GI50 values (μM conc.)
Description: as §1, §2

UACC-257 = experiment: In vitro cytotoxicity, NCI screen: UACC-257 (Melanoma); settings: Homo sapiens; UACC-257, Melanoma panel, NCI protocol; read-out: GI50 values (μM conc.)
Description: as §1, §2

SF-295 = experiment: In vitro cytotoxicity, NCI screen: SF-295 (CNS); settings: Homo sapiens; SF-295, CNS panel, NCI protocol; read-out: GI50 values (μM conc.)
Description: as §1, §2

OVCAR-8 = experiment: In vitro cytotoxicity, NCI screen: OVCAR-8 (Ovarian); settings: Homo sapiens; OVCAR-8, Ovarian panel, NCI protocol; read-out: GI50 values (μM conc.)
Description: as §1, §2

SNB-19 = experiment: In vitro cytotoxicity, NCI screen: SNB-19 (CNS); settings: Homo sapiens; SNB-19, CNS panel, NCI protocol; read-out: GI50 values (μM conc.)
Description: as §1, §2

IGROV1 = experiment: In vitro cytotoxicity, NCI screen: IGROV1 (Ovarian); settings: Homo sapiens, IGROV-1; IGROV1, Ovarian panel, NCI protocol; read-out: GI50 values (μM conc.)
Description: as §1, §2

TK-10 = experiment: In vitro cytotoxicity, NCI screen: TK-10 (Renal); settings: Homo sapiens; TK-10, Renal panel, NCI protocol; read-out: GI50 values (μM conc.)
Description: as §1, §2

OVCAR-3 = experiment: In vitro cytotoxicity, NCI screen: OVCAR-3 (Ovarian); settings: Homo sapiens; OVCAR-3, Ovarian panel, NCI protocol; read-out: GI50 values (μM conc.)
Description: as §1, §2

HCC-2998 = experiment: In vitro cytotoxicity, NCI screen: HCC-2998 (Colon); settings: Homo sapiens; HCC-2998, Colon panel, NCI protocol; read-out: GI50 values (μM conc.)
Description: as §1, §2

A549/ATCC = experiment: In vitro cytotoxicity, NCI screen: A549/ATCC (Non-small cell lung); settings: Homo sapiens, Non-small cell lung panel, NCI protocol, read-out: GI50 values (μM conc.)
Description: as §1, §2

NCI-H322M = experiment: In vitro cytotoxicity, NCI screen: NCI-H322M (Non-small cell lung); settings: Homo sapiens, Non-small cell lung panel, NCI protocol, read-out: GI50 values (μM conc.)
Description: as §1, §2

SK-MEL-5 = experiment: In vitro cytotoxicity, NCI screen: SK-MEL-5 (Melanoma); settings: Homo sapiens; SK-MEL-5, Melanoma panel, NCI protocol; read-out: GI50 values (μM conc.)
Description: as §1, §2

COLO-205 = experiment: In vitro cytotoxicity, NCI screen: COLO-205 (Colon); settings: Homo sapiens; COLO-205, Colon panel, NCI protocol; read-out: GI50 values (μM conc.)
Description: as §1, §2

OVCAR-4 = experiment: In vitro cytotoxicity, NCI screen: OVCAR-4 (Ovarian); settings: Homo sapiens; OVCAR-4, Ovarian panel, NCI protocol; read-out: GI50 values (μM conc.)
Description: as §1, §2

M14 = experiment: In vitro cytotoxicity, NCI screen: M14 (Melanoma); settings: Homo sapiens; M14, Melanoma panel, NCI protocol; read-out: GI50 values (μM conc.)
Description: as §1, §2

U251 = experiment: In vitro cytotoxicity, NCI screen: U251 (CNS); settings: Homo sapiens, U-251; U251, CNS panel, NCI protocol; read-out: GI50 values (μM conc.)
Description: as §1, §2

NCI-H23 = experiment: In vitro cytotoxicity, NCI screen: NCI-H23 (Non-small cell lung); settings: Homo sapiens; NCI-H23, Non-small cell lung panel, NCI protocol; read-out: GI50 values (μM conc.)
Description: as §1, §2

SK-MEL-28 = experiment: In vitro cytotoxicity, NCI screen: SK-MEL-28 (Melanoma); settings: Homo sapiens; SK-MEL-28, Melanoma panel, NCI protocol; read-out: GI50 values (μM conc.)
Description: as §1, §2

NCI-H522 = experiment: In vitro cytotoxicity, NCI screen: NCI-H522 (Non-small cell lung); settings: Homo sapiens; NCI-H522, Non-small cell lung panel, NCI protocol; read-out: GI50 values (μM conc.)
Description: as §1, §2

HCT-116 = experiment: In vitro cytotoxicity, NCI screen: HCT-116 (Colon); settings: Homo sapiens, read-out: GI50 values (μM conc.)
Description: as §1, §2

PC-3 = experiment: In vitro cytotoxicity, NCI screen: PC-3 (Prostate); settings: Homo sapiens; PC-3, Prostate panel, NCI protocol; read-out: GI50 values (μM conc.)
Description: as §1, §2

OVCAR-5 = experiment: In vitro cytotoxicity, NCI screen: OVCAR-5 (Ovarian); settings: Homo sapiens; OVCAR-5, Ovarian panel, NCI protocol; read-out: GI50 values (μM conc.)
Description: as §1, §2

T-47D = experiment: In vitro cytotoxicity, NCI screen: T-47D (Breast); settings: Homo sapiens, T47D, Breast panel, NCI protocol, read-out: GI50 values (μM conc.)
Description: as §1, §2

MDA-MB-231/ATCC = experiment: In vitro cytotoxicity, NCI screen: MDA-MB-231/ATCC (Breast); settings: Homo sapiens, Breast panel, NCI protocol, read-out: GI50 values (μM conc.)
Description: as §1, §2

SN12C = experiment: In vitro cytotoxicity, NCI screen: SN12C (Renal); settings: Homo sapiens, Renal panel, NCI protocol, read-out: GI50 values (μM conc.)
Description: as §1, §2

SF-539 = experiment: In vitro cytotoxicity, NCI screen: SF-539 (CNS); settings: Homo sapiens, read-out: GI50 values (μM conc.)
Description: as §1, §2

ACHN = experiment: In vitro cytotoxicity, NCI screen: ACHN (Renal); settings: Homo sapiens, Renal panel, NCI protocol, read-out: GI50 values (μM conc.)
Description: as §1, §2

COc1ccc(/C=C\c2cc(OC)c(OC)c(OC)c2)cc1OCC(=O)Nc1nc2ccc(OC(F)(F)F)cc2s1 [Compound 8j, N1-(6-(trifluoromethoxy)-1,3-benzothiazol-2-yl)-2-{2-methoxy-5-[(Z)-2-(3,4,5-trimethoxyphenyl)-1-ethenyl]phenoxy}acetamide]
GI50 (CCRF-CEM): 4.12 µM
GI50 (HCT-15): 3.23 µM
GI50 (SR): 3.55 µM
GI50 (MDA-MB-468): 2.3 µM
GI50 (A498): 3.61 µM
GI50 (KM12): 4.48 µM
GI50 (UACC-257): 89.2 µM
GI50 (SF-295): 3.7 µM
GI50 (OVCAR-8): 5 µM
GI50 (SNB-19): 7.08 µM
GI50 (IGROV1): 5.64 µM
GI50 (TK-10): 18.6 µM
GI50 (OVCAR-3): 3.37 µM
GI50 (HCC-2998): 17.1 µM
GI50 (A549/ATCC): 6 µM
GI50 (NCI-H322M): > 100 µM
GI50 (SK-MEL-5): 3.26 µM
GI50 (COLO-205): 43.3 µM
GI50 (OVCAR-4): 5.34 µM
GI50 (M14): 4.36 µM
GI50 (U251): 3.37 µM
GI50 (NCI-H23): 4.39 µM
GI50 (SK-MEL-28): 4.57 µM
GI50 (NCI-H522): 3.16 µM
GI50 (HCT-116): 3.92 µM
GI50 (PC-3): 5.12 µM
GI50 (OVCAR-5): 3.12 µM
GI50 (T-47D): 3.95 µM
GI50 (MDA-MB-231/ATCC): 5.16 µM
GI50 (SN12C): 6.42 µM
GI50 (SF-539): 2.28 µM
GI50 (ACHN): 8.31 µM

COc1ccc(/C=C/C(=O)c2cc(OC)c(OC)c(OC)c2)cc1OCC(=O)Nc1nc2ccc(OC(F)(F)F)cc2s1 [Compound 9j, N1-(6-(trifluoromethoxy)-1,3-benzothiazol-2-yl)-2-{2-methoxy-5-[(E)-3-oxo-3-(3,4,5-trimethoxyphenyl)-1-propenyl]phenoxy}acetamide]
GI50 (CCRF-CEM): 2.5 µM
GI50 (HCT-15): 0.4 µM
GI50 (SR): 0.39 µM
GI50 (MDA-MB-468): 3.52 µM
GI50 (A498): 7.4 µM
GI50 (KM12): 1.51 µM
GI50 (UACC-257): 8.08 µM
GI50 (SF-295): 2.21 µM
GI50 (OVCAR-8): 1.54 µM
GI50 (SNB-19): 1.58 µM
GI50 (IGROV1): 2.54 µM
GI50 (TK-10): 2.08 µM
GI50 (OVCAR-3): 1.52 µM
GI50 (HCC-2998): 6.18 µM
GI50 (A549/ATCC): 1.99 µM
GI50 (NCI-H322M): 2.77 µM
GI50 (SK-MEL-5): 2.03 µM
GI50 (COLO-205): 6.37 µM
GI50 (OVCAR-4): 2.07 µM
GI50 (M14): 1.72 µM
GI50 (U251): 0.7 µM
GI50 (NCI-H23): 2.15 µM
GI50 (SK-MEL-28): 3.31 µM
GI50 (NCI-H522): 0.67 µM
GI50 (HCT-116): 1.43 µM
GI50 (PC-3): 3.14 µM
GI50 (OVCAR-5): 4.76 µM
GI50 (T-47D): 3.08 µM
GI50 (MDA-MB-231/ATCC): 2.01 µM
GI50 (SN12C): 1.74 µM
GI50 (SF-539): 0.29 µM
GI50 (ACHN): 1.62 µM
